Reference: EP4273147A1, “SUBSTITUTED SPIROLACTAMS, SALTS THEREOF AND THEIR USE AS HERBICIDALLY ACTIVE SUBSTANCES” (Bayer Aktiengesellschaft, priority 2022, dated 2023)

Key:
LOLRI [1] = assay: Herbicidal pre-emergence action (Table A3); format: in vivo, Lolium rigidum; settings: application rate 320 g/ha; visual grading after ca. 3 weeks
Procedure, shortened: (§1)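 Paired sowings (monocot weed with dicot weed) in potted sandy loam, seeds soil-covered.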

MATIN = assay: Herbicidal pre-emergence action (Table A4); format: in vivo, Matricaria inodora; settings: application rate 1280 g/ha; visual grading after ca. 3 weeks
Procedure, shortened: as §1

SETVI [2] = assay: Herbicidal pre-emergence action (Table A5); format: in vivo, Setaria viridis; settings: application rate 1280 g/ha; visual grading after ca. 3 weeks
Procedure, shortened: as §1

STEME = assay: Herbicidal pre-emergence action (Table A6); format: in vivo, Stellaria media; settings: application rate 1280 g/ha; visual grading after ca. 3 weeks
Procedure, shortened: as §1

POAAN [3] = assay: Herbicidal pre-emergence action (Table A7); format: in vivo, Poa annua; settings: application rate 320 g/ha; visual grading after ca. 3 weeks
Procedure, shortened: as §1

ALOMY [4] = assay: Herbicidal pre-emergence action (Table A9); format: in vivo, Alopecurus myosuroides; settings: application rate 1280 g/ha; visual grading after ca. 3 weeks
Procedure, shortened: as §1

KCHSC = assay: Herbicidal pre-emergence action (Table A10); format: in vivo, Kochia scoparia; settings: application rate 1280 g/ha; visual grading after ca. 3 weeks
Procedure, shortened: as §1

VERPE [5] = assay: Herbicidal pre-emergence action (Table A11); format: in vivo, Veronica persica; settings: application rate 1280 g/ha; visual grading after ca. 3 weeks
Procedure, shortened: as §1

DIGSA [6] = assay: Herbicidal pre-emergence action (Table A12); format: in vivo, Digitaria sanguinalis; settings: application rate 320 g/ha; visual grading after ca. 3 weeks
Procedure, shortened: as §1

ECHCG [7] = assay: Herbicidal post-emergence action (Table B3); format: in vivo, Echinochloa crus-galli; settings: application rate 1280 g/ha; rated visually after about 3 weeks
Procedure, shortened: (§2)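 Weed seeds sown in sandy loam in pots (one mono- or dicot species per pot), grown in greenhouse; plants treated post-emergence at one-leaf stage, 2–3 weeks after sowing. After ~3 weeks, damage scored visually vs untreated controls (100% = plants dead, 0% = like controls).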

POAAN [8] = assay: Herbicidal post-emergence action (Table B7); format: in vivo, Poa annua; settings: application rate 1280 g/ha
Procedure, shortened: as §2

ABUTH [9] = assay: Herbicidal pre-emergence action, section C (Table C1); format: in vivo, Abutilon theophrasti; settings: application rate 320 g/ha; visual grading after ca. 3 weeks
ALOMY [10] = assay: Herbicidal pre-emergence action, section C (Table C2); format: in vivo, Alopecurus myosuroides; settings: application rate 320 g/ha; visual grading after ca. 3 weeks
AVEFA = assay: Herbicidal pre-emergence action, section C (Table C4); format: in vivo, Avena fatua; settings: application rate 320 g/ha; visual grading after ca. 3 weeks
Text: (§4) Seeds of mono- and dicotyledonous weed plants and crop plants were sown, in plastic or organic planting pots, in sandy loam and covered with soil. The compounds according to the invention, formulated in the form of wettable powders (WP) or as emulsifiable concentrates (EC), were applied to the surface of the covering soil as aqueous suspension or emulsion, with the addition of 0.5% of an additive, at an application rate of 600 1 of water/ha (converted). Following treatment, the pots were placed in a greenhouse and kept under optimum growth conditions for the test plants.

DIGSA [11] = assay: Herbicidal pre-emergence action, section C (Table C5); format: in vivo, Digitaria sanguinalis; settings: application rate 320 g/ha; visual grading after ca. 3 weeks
Text: as §4

ECHCG [12] = assay: Herbicidal pre-emergence action, section C (Table C6); format: in vivo, Echinochloa crus-galli; settings: application rate 80 g/ha; visual grading after ca. 3 weeks
Text: as §4

LOLRI [13] = assay: Herbicidal pre-emergence action, section C (Table C7); format: in vivo, Lolium rigidum; settings: application rate 320 g/ha; visual grading after ca. 3 weeks
SETVI [14] = assay: Herbicidal pre-emergence action, section C (Table C10); format: in vivo, Setaria viridis; settings: application rate 320 g/ha; visual grading after ca. 3 weeks
VERPE [15] = assay: Herbicidal pre-emergence action, section C (Table C11); format: in vivo, Veronica persica; settings: application rate 320 g/ha; visual grading after ca. 3 weeks
VIOTR [16] = assay: Herbicidal pre-emergence action, section C (Table C12); format: in vivo, Viola tricolor; settings: application rate 80 g/ha; visual grading after ca. 3 weeks
ZEAMX [17] = assay: Pre-emergence effects on crop plants (Table D1); format: in vivo, Zea mays; settings: crop plant; application rate 80 g/ha; visual grading after ca. 3 weeks
Text: (§5) Seeds of mono- and dicotyledonous weed plants and crop plants were sown, in plastic or organic planting pots, in sandy loam and covered with soil. The compounds according to the invention, formulated in the form of wettable powders (WP) or as emulsifiable concentrates (EC), were applied to the surface of the covering soil as aqueous suspension or emulsion, with the addition of 0.5% of an additive, at an application rate of 600 1 of water/ha (converted).
(§6) Following treatment, the pots were placed in a greenhouse and kept under optimum growth conditions for the test plants.

TRZAS [18] = assay: Pre-emergence effects on crop plants (Table D2); format: in vivo, Triticum aestivum; settings: crop plant; application rate 80 g/ha; visual grading after ca. 3 weeks
GLXMA = assay: Pre-emergence effects on crop plants (Table D4); format: in vivo, Glycine max; settings: crop plant; application rate 80 g/ha; visual grading after ca. 3 weeks
Text: as §5, §6

ABUTH [19] = assay: Herbicidal post-emergence action, section E (Table E1); format: in vivo, Abutilon theophrasti; settings: application rate 320 g/ha; assessed visually after ca. 3 weeks
Text: (§3) 2 to 3 weeks after sowing, the test plants were sprayed in the single-leaf stage.

VERPE [20] = assay: Herbicidal post-emergence action, section E (Table E9); format: in vivo, Veronica persica; settings: application rate 320 g/ha; assessed visually after ca. 3 weeks
Text: as §3

VIOTR [21] = assay: Herbicidal post-emergence action, section E (Table E10); format: in vivo, Viola tricolor; settings: application rate 320 g/ha; assessed visually after ca. 3 weeks
Text: as §3

ZEAMX [22] = assay: Post-emergence effects on crop plants (Table F1); format: in vivo, Zea mays; settings: application rate 80 g/ha, crop plant ZEAMX
Text: as §3

TRZAS [23] = assay: Post-emergence effects on crop plants (Table F2); format: in vivo, Triticum aestivum; settings: application rate 320 g/ha, crop plant TRZAS
Text: as §3

ORYZA [24] = assay: Post-emergence effects on crop plants (Table F3); format: in vivo, Oryza sativa; settings: application rate 320 g/ha, crop plant ORYZA
Text: as §3

ORYZA [25] = assay: Pre-emergence effects on crop plants (Table D3); settings: crop plant; application rate 320 g/ha; visual grading after ca. 3 weeks

Q: O=C1N(Cc2ccccc2Cl)CCCC12CCN(Cc1cccc(F)c1F)C2=O (racemic) [I-035] was tested. Which “pre-emergence activity against LOLRI” value (LOLRI [1]) did it give?
A: The value was 100%.

Q: And the “pre-emergence activity against MATIN” value (MATIN)?
A: The value was 90%.

Q: And the “pre-emergence activity against SETVI” value (SETVI [2])?
A: The value was 100%.

Q: And the “pre-emergence activity against STEME” value (STEME)?
A: Its value is 90%.

Q: What about the “pre-emergence activity against POAAN” value (POAAN [3]) of the same compound?
A: Its value is 100%.

Q: And the “pre-emergence activity against ALOMY” value (ALOMY [4])?
A: Its value is 90%.

Q: What about the “pre-emergence activity against KCHSC” value (KCHSC) of the same compound?
A: Its value is 90%.

Q: And the “pre-emergence activity against VERPE” value (VERPE [5])?
A: Its value is 90%.

Q: What about the “pre-emergence activity against DIGSA” value (DIGSA [6]) of the same compound?
A: Its value is 100%.

Q: What about the “post-emergence activity against ECHCG” value (ECHCG [7]) of the same compound?
A: The value was 90%.

Q: And the “post-emergence activity against POAAN” value (POAAN [8])?
A: The value was 90%.

Q: What about the “pre-emergence activity against ABUTH” value (ABUTH [9]) of the same compound?
A: The value was 80%.

Q: What about the “pre-emergence activity against ALOMY” value (ALOMY [10]) of the same compound?
A: The value was 80%.

Q: What about the “pre-emergence activity against AVEFA” value (AVEFA) of the same compound?
A: Its value is 100%.

Q: And the “pre-emergence activity against DIGSA” value (DIGSA [11])?
A: Its value is 100%.

Q: What about the “pre-emergence activity against ECHCG” value (ECHCG [12]) of the same compound?
A: The value was 100%.

Q: What about the “pre-emergence activity against LOLRI” value (LOLRI [13]) of the same compound?
A: The value was 90%.

Q: What about the “pre-emergence activity against SETVI” value (SETVI [14]) of the same compound?
A: The value was 100%.

Q: And the “pre-emergence activity against VERPE” value (VERPE [15])?
A: Its value is 90%.

Q: And the “pre-emergence activity against VIOTR” value (VIOTR [16])?
A: Its value is 90%.

Q: What about the “pre-emergence activity against ZEAMX” value (ZEAMX [17]) of the same compound?
A: The value was 0%.

Q: And the “pre-emergence activity against TRZAS” value (TRZAS [18])?
A: Its value is 0%.

Q: And the “pre-emergence activity against GLXMA” value (GLXMA)?
A: The value was 0%.

Q: What about the “post-emergence activity against ABUTH” value (ABUTH [19]) of the same compound?
A: The value was 90%.

Q: And the “post-emergence activity against VERPE” value (VERPE [20])?
A: Its value is 80%.

Q: And the “post-emergence activity against VIOTR” value (VIOTR [21])?
A: Its value is 80%.

Q: And the “post-emergence activity against ZEAMX” value (ZEAMX [22])?
A: Its value is 0%.

Q: What about the “post-emergence activity against TRZAS” value (TRZAS [23]) of the same compound?
A: The value was 0%.

Q: What about the “post-emergence activity against ORYZA” value (ORYZA [24]) of the same compound?
A: The value was 0%.

Q: And the “pre-emergence activity against ORYZA” value (ORYZA [25])?
A: Its value is 0%.
